In the METLIN SMRT retention time set (Domingo-Almenara et al. 2019):

Assay: gradient 5% acetonitrile 3 min, to 50% in 2 min, to 85% in 15 min, held 3 min, 100 µL/min
Conditions: column: Zorbax Extend-C18 2.1 x 50 mm; eluents: water / acetonitrile, 0.1% formic acid
In short: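 The system's dead and dwell volumes were 40 μL and 900 μL, with a Zorbax Extend-C18 column (2.1 × 50 mm, 1.8 μm) run at 100 μL/min in water and acetonitrile containing 0.1% formic acid each. Pure standards were analyzed in mixtures of ~100 molecules by HPLC–quadrupole time-of-flight mass spectrometry in positive and negative ionization mode. Retention time was assigned from computationally picked, manually inspected adduct peaks.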

Row | RP-LC retention time [s] | SMILES
1 | 696 | CN(C)C(=O)c1cc2c(s1)CCC(C(=O)NC1CCCC1)C2 (stereo not given)
2 | 710 | O=C(NCc1cccnc1-c1ccc(F)cc1)c1cc(F)cc(F)c1
3 | 876 | CCOC(=O)c1ccccc1NC(=O)C1CCCN(c2ncnc3c2nc2n3CCCCC2)C1 (stereo not given)
4 | 675 | CN(C)C(=O)c1ccc2c(c1)nnn2CCNC(=O)Nc1ccccc1Br
5 | 621 | Cc1noc(C)c1COc1ccccc1CN1CCC2(CCC2O)CC1 (stereo not given)
6 | 556 | O=C(C1CC(=O)N(c2ccc(F)cc2)C1)N1CCN(CCn2cccn2)CC1 (stereo not given)
7 | 581 | Cc1oc(-c2ccc(C(=O)NCCCN3CCN(C)CC3)cc2)nc1CS(=O)c1ccccc1 (stereo not given)
8 | 879 | CCOc1ccc(C2C(=O)N(C3CCCCC3)CC(=O)N2Cc2ccco2)cc1OC (stereo not given)
9 | 819 | COc1ccccc1CN1CC(=O)N(c2cccc(C)c2)[C@@H]2CS(=O)(=O)C[C@@H]21
10 | 801 | NC(=O)c1cnn2c3c(cnc12)CCCCCC3
11 | 626 | Cc1cc(C)nc(Nc2nc(C(=O)O)cs2)n1
12 | 916 | COc1ccccc1NC(=O)C1CCN(S(C)(=O)=O)c2ccccc2O1 (stereo not given)
13 | 1210 | Clc1ccc(-c2noc(Cc3nnc(-c4cccc(Br)c4)o3)n2)cc1
14 | 967 | COc1ccc(Cl)cc1S(=O)(=O)N1CCCC(C(=O)Nc2ccccc2)C1 (stereo not given)
15 | 810 | Cc1ccc(C2Cn3cnc(C(=O)N4CCC(C(=O)NCc5ccccc5C)CC4)c3CO2)cc1 (stereo not given)
16 | 579 | COc1ccc(CN2CC[C@]3(CO)CN(Cc4ccccc4)C[C@@H]3C2)c(Cl)c1OC
17 | 570 | Cc1nnc2c(=O)n(CC(=O)NCc3ccc(N(C)C)cc3)c3cccnc3n12
18 | 792 | Cc1ccc(-n2nnnc2CNS(=O)(=O)c2ccc(F)cc2F)cc1
19 | 600 | CCN1CCN(CCNC(=O)CN2C(=O)CSc3cccn3-c3ccccc32)CC1

Row | RP-LC retention time [s] | SMILES
20 | 566 | O=C(NCc1ccccc1Cl)C(=O)NCC1CCN(C(=O)COc2ccccc2)CC1
21 | 668 | Cc1ccc2oc(-c3nnc(C(=O)NCCCN4CCOCC4)o3)c(C)c2c1
22 | 811 | COc1ncc(C(=O)N2CCN(c3ccccc3Cl)CC2)cn1
23 | 678 | CCCCn1c(CN2CCOCC2)nc2cc(NC(=O)c3cccs3)ccc21
24 | 975 | COc1ccc(Cn2c(C(C)C)nc3sc4ccccc4c(=O)c3c2=O)cc1
25 | 638 | CSc1ccccc1NC(=O)c1cn2c(n1)CCCC2
26 | 782 | CCc1noc2nc(C)n(CC(=O)NCc3ccccc3C)c(=O)c12
27 | 595 | COC(=O)CNC(=O)N1Cc2ccccc2OC2(CCN(C(C)C)CC2)C1
28 | 850 | COc1cccc(-c2cn3ccn(-c4ccc(OC)c(Cl)c4)c(=O)c3n2)c1
29 | 1280 | COc1ccc(Br)cc1S(=O)(=O)NC(=O)/C=C/c1ccccc1Cc1ccc2ccccc2c1
30 | 584 | Cc1cc(C)n(-c2ccnc(NCCc3cccnc3)n2)n1
31 | 587 | CCCn1ccc2sc(C)c(C(=O)N3CCN(C(C)C)CC3)c2c1=O
32 | 640 | CCCCN(CCCNC(=O)C1CCN(S(=O)(=O)N2CCOCC2)CC1)Cc1ccccc1
33 | 794 | CCCn1cc(CCNC(=O)c2cc3ccccc3[nH]2)c2cccnc21
34 | 605 | O=C(NCCN1CCN(C(=O)NC(c2ccccc2)c2ccccc2)CC1)c1ccsc1
35 | 700 | COc1ccc(OC)c(CNC(=O)c2ccc(-c3cncnc3)nc2)c1
36 | 1010 | Cc1ccc(C)c(N2CCN(c3ccnc(SCC(=O)Nc4ccccc4F)n3)CC2)c1
37 | 837 | COc1ccc(NC(=O)N(C)CCc2noc(COc3ccc(F)cc3)n2)c(OC)c1
38 | 832 | CCCC(=O)N1CCc2cn(C)c3cccc(c23)C1

More lines, now with the values behind:

Row | SMILES | RP-LC retention time [s]
39 | Cc1ccc(S(=O)(=O)Nc2ccc3nc(N4CCN(CCC#N)CC4)cc(C(=O)O)c3c2)cc1C | 614
40 | O=C(c1ccccc1)N1CCc2cc(CNS(=O)(=O)c3ccccc3)ccc21 | 819
41 | Cc1nnc2cc(N3CCN(Cc4csc5c4CCCC5)CC3)cnn12 | 589
42 | CCC(C(=O)N1CCN(c2ccccn2)CC1)n1c2ccccc2c2cnn(C)c(=O)c21 (stereo not given) | 638
43 | Cc1noc(-c2cccc(OC3CN(C(=O)Nc4cccc(F)c4)C3)c2)n1 | 923
44 | O=C(NCc1ccc(F)c(Cl)c1)c1ccc2ncnc(N3CCCC3)c2c1 | 670
45 | CCS(=O)(=O)N1C[C@@H](COc2cccnc2)[C@H](c2ccccn2)C1 | 561
46 | O=C(CN1C(=O)NC2(CCCCC2)C1=O)Nc1ccc2c(c1)CCC2 | 846
47 | CCn1cc(-c2ccc(OC)cc2)cc1C(=O)N1CCCN(C)CC1 | 627
48 | O=C(Nc1cccnc1)C1CCN(S(=O)(=O)Cc2ccccc2)CC1 | 626
49 | CCOCCCNC(=O)c1nc(Nc2ccc(CC)cc2)c2ccccc2n1 | 813
50 | CC(C)n1c(=O)oc2cc(S(=O)(=O)N3CCN(C(=O)C4(c5ccccc5)CC4)CC3)ccc21 | 902
51 | CN(C)C(CNC(=O)C(=O)NCc1ccc2c(c1)OCO2)c1ccsc1 (stereo not given) | 556
52 | CN1C(=O)C(CC(=O)Nc2ccccc2)=C2CCCCC21 (stereo not given) | 758
53 | COc1ccc(NC(=O)N2CCC(n3cnc4cccnc43)CC2)c(OC)c1 | 633
54 | CCc1ccc(CNC(=O)C2CCc3nc(N4CCOCC4)ncc3C2)cc1 (stereo not given) | 802
55 | O=C(NC1CCCN(c2cc(-c3ccccc3)[nH]n2)C1)c1ccc2[nH]ccc2c1 (stereo not given) | 729
56 | O=C(Nc1nc2ccc([N+](=O)[O-])cc2s1)c1ccc(S(=O)(=O)N2CCCCC2)cc1 | 1020
57 | C=CCn1nc2ccc(S(=O)(=O)N3CCC(C)CC3)cn2c1=O | 843
58 | CC1=C(c2ccc(C)c(C)c2)S(=O)(=O)N=C1N1CCCN(C(=O)C2CCCC2)CC1 | 912
59 | COCC(=O)Nc1cnc(-c2cccc(Cl)c2)nc1 | 872
60 | CCc1ccc(NC(=O)C2CCCN(c3ccc(=O)n(-c4cccc(Cl)c4)n3)C2)cc1 (stereo not given) | 922
61 | CNC(Cc1ccccc1)c1ccc(OC)cc1 (stereo not given) | 567
62 | COC(=O)c1c(C)[nH]c(C(=O)N2CCCC(C(=O)NCCC3=CCCCC3)C2)c1C (stereo not given) | 825
63 | Cc1c(Cl)cccc1N1C(=O)CN(S(C)(=O)=O)CC1(C)C(=O)NC1CCCCC1 (stereo not given) | 892
64 | COc1ccc(N2CCN(c3ncc(S(=O)(=O)c4ccc(C(C)C)cc4)c(N)n3)CC2)cc1 | 1070

Row | SMILES | RP-LC retention time [s]
65 | CCn1cc(S(=O)(=O)N2CC3(CCCCC3)CC2COc2ccc(OC)cc2)cn1 (stereo not given) | 1090
66 | O=C(c1c[nH]c2ccccc12)N1CCCCC1c1nc(C2CC2)no1 (stereo not given) | 866
67 | Cc1oc2ccn(Cc3ccc(F)cc3)c(=O)c2c1C(=O)NCc1cc(F)ccc1F | 1130
68 | Cc1ccc(N2CN(CC(=O)Nc3ccccc3C)S(=O)(=O)c3cccnc32)cc1 | 813
69 | CCOC(=O)c1cccc(NC(=O)C2CCCN(c3ccc(=O)n(-c4cccc(Cl)c4)n3)C2)c1 (stereo not given) | 994
70 | CN(C(=O)CC(=O)Nc1ccc2nc3n(c(=O)c2c1)CCCCC3)c1cccc(C(F)(F)F)c1 | 771
71 | CCOc1ccccc1NC(=O)N(C)CCc1noc(C2CCCCC2)n1 | 1070
72 | O=C(c1cn2cc(Cl)ccc2n1)N1CCN(c2ccccc2)CC1 | 804
73 | Cc1ccc(-c2ncc(NC(=O)c3ccc(Br)o3)cn2)cc1 | 1030
74 | CC(C(=O)N1CCN(c2ccccn2)CC1)n1nc(-c2ccccc2)c2cc(Cl)ccc21 (stereo not given) | 835
75 | O=C(O)c1cccn2c(=O)c3cc(Cl)ccc3nc12 | 782
76 | CS(=O)(=O)N1CCC(OC2CCN(C(=O)c3ccccc3)CC2)CC1 | 709
77 | O=C(CCc1cccc2[nH]ccc12)Nc1ccc(N2CCOCC2)cc1 | 845
78 | Cc1ccc(NC(=O)NCC(c2cccnc2)c2c[nH]c3ccccc23)cc1F (stereo not given) | 693
79 | CCc1cccc(NC(=O)Cn2nc3n(c2=O)CCCCC3)c1 | 722
80 | COc1ccc(S(=O)(=O)Cc2nc(-c3ccccc3C)no2)cc1OC | 882
81 | CCCCS(=O)(=O)N1CCC(F)(c2nc(-c3ccccc3)no2)CC1 | 1080
82 | COCCCNC(=O)c1c(OCC2CC2)cc(=O)n2c1CCCCC2 | 611
83 | COc1ccc(NC(=O)c2cc(C(C)(C)C)n3nccc3n2)c(C)c1 | 1240
84 | Cc1nc(-c2ccccc2)nc2c1CCC(=O)N2Cc1cccnc1 | 673
85 | Cc1cccc(NC(=O)CN2C(=O)C3CCCN3C(=O)c3ccc(F)cc32)c1C (stereo not given) | 731
86 | CCC(C)NC(=O)c1ccc(Cn2nc(C)c(S(=O)(=O)N(C)C)c2C)cc1 (stereo not given) | 754
87 | CCC(C(=O)N1CCN(c2cc(C)n3cnnc3n2)CC1)c1ccccc1 (stereo not given) | 864
88 | CCOc1ccc(NC(=O)c2cnc(N3CCN(C)CC3)nc2N)cc1 | 602
89 | Cc1ccc(N2CCN(Cc3nc(-c4ccc(N5CCCC5)nc4)no3)CC2)cc1 | 678
90 | O=C(CN1CCN(C(=O)Cc2cccs2)CC1)c1ccco1 | 538
